Data on eight compounds can be found in ChEMBL document CHEMBL5465560, “Selectivity Literature for EUbOPEN Chemogenomic Library” (2024).

By IC50 is commonly meant the point on the concentration scale where inhibition reaches its midpoint. Lower therefore signals greater potency.

Experiment [1] addresses Tyrosine-protein kinase BTK (Homo sapiens, UniProt Q06187). As to the kind of experiment: Selectivity interaction (Ambit KINOMEscan and KiNATiv profiling in Jurkat cells) EUB0000090b BTK. Type of experiment: cell-based. Particulars: at 1 µM.
The target in experiment [2] is T1, Ankyrin repeat and protein kinase domain-containing protein 1 (Homo sapiens) (UniProt Q8NFD2).
T1 sequence (whole entry): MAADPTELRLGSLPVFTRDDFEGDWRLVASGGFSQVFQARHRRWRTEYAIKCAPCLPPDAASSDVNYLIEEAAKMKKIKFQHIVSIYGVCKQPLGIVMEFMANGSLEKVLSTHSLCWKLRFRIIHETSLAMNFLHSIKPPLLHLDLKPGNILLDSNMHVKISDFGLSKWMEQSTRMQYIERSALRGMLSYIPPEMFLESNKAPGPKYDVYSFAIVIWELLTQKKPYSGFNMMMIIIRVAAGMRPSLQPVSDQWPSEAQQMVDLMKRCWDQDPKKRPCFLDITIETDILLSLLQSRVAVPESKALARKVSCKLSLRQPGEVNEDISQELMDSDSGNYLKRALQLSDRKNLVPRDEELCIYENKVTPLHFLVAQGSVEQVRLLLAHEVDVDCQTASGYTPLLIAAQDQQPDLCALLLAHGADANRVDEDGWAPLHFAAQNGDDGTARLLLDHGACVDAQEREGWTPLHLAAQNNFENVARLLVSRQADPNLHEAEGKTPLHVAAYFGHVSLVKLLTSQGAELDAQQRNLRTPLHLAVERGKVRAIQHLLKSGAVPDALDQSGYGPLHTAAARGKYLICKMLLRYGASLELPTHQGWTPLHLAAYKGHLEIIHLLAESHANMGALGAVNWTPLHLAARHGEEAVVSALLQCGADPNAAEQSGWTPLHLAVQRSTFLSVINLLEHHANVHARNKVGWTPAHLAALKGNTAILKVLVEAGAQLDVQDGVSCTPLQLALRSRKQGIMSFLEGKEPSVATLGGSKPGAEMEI
Particulars: at 10 µM.

Experiment [3] deals with Calcium/calmodulin-dependent protein kinase type II subunit delta (Homo sapiens) (UniProt Q13557). Particulars: at 10 µM.
Sequence of Calcium/calmodulin-dependent protein kinase type II subunit delta (Homo sapiens) (Q13557 whole entry): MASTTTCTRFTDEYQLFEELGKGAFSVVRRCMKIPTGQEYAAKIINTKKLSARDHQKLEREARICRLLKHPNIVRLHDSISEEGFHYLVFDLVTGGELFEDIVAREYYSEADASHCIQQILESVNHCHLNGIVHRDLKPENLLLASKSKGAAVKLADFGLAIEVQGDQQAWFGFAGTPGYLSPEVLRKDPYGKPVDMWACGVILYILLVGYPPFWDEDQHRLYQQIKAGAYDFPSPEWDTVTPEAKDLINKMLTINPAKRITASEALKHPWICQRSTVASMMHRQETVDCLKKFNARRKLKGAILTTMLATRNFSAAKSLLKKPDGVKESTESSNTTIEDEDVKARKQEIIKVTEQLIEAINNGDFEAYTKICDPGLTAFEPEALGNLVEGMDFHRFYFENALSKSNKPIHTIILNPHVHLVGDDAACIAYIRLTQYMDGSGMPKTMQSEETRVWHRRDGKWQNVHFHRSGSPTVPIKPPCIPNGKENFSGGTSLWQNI
Experiment [4] deals with MAP kinase-activated protein kinase 2 (Homo sapiens, UniProt P49137). In words: Selectivity interaction (KinomeScan (DiscoverX)) EUB0001049a MAPKAPK2. Conditions: at 1 µM.
Sequence of MAP kinase-activated protein kinase 2 (P49137 whole entry, looked up): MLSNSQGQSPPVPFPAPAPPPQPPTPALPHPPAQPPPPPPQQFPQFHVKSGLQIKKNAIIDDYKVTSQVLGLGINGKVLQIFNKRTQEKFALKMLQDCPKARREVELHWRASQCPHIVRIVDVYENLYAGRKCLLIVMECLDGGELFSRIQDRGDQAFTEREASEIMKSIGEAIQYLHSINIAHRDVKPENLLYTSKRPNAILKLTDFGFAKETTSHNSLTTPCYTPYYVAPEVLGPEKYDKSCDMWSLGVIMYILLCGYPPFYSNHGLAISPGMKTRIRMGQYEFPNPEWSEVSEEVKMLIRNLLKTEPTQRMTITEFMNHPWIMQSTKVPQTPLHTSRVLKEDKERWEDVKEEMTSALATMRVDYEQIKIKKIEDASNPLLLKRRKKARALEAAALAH
Experiment [5] has as its target Serine/threonine-protein kinase 26 (Homo sapiens, UniProt Q9P289). As to the kind of experiment: Selectivity interaction (KinomeScan (DiscoverX)) EUB0000045b STK26.
In experiment [6] the target is Serine/threonine-protein kinase MARK2 (Homo sapiens) (UniProt Q7KZI7). In words: Selectivity interaction (ActivX KiNativ screen (kinase selectivity in THP-1 cell lysates)) EUB0000639a MARK2. Conditions: lysate, at 0.2 µM. Type of experiment: subcellular.
Sequence of Serine/threonine-protein kinase MARK2 (Homo sapiens) (Q7KZI7 whole entry): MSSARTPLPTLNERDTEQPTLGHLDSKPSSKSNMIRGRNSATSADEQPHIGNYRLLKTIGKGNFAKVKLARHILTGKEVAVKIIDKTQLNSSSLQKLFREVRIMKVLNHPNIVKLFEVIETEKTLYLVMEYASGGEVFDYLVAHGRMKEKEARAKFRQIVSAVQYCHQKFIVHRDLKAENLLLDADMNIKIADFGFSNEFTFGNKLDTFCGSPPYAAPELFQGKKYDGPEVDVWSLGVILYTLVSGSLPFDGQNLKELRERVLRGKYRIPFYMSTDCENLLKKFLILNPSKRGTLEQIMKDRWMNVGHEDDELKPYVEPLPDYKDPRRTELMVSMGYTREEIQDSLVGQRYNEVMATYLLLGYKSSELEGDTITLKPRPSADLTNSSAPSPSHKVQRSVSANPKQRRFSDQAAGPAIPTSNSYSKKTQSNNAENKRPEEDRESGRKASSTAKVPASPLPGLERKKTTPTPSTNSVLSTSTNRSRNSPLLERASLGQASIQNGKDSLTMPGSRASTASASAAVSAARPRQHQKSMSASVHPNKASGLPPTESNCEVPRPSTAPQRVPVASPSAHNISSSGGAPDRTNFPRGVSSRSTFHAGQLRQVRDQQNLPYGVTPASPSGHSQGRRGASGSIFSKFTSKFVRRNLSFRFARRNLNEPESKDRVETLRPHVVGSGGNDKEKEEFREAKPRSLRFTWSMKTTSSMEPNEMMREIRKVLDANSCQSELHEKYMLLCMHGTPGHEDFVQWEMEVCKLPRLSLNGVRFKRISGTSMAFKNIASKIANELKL
The target in experiment [7] is Phosphatidylinositol 4-kinase alpha (Homo sapiens, UniProt P42356). As to the kind of experiment: Selectivity interaction (Kinase panel (Invitrogen)) EUB0000639a PI4KA. Conditions: at 200 nM.
Experiment [8] concerns the target T2, Bromodomain and PHD finger-containing protein 3 (Homo sapiens) (UniProt Q9ULD4).
T2 sequence (whole entry): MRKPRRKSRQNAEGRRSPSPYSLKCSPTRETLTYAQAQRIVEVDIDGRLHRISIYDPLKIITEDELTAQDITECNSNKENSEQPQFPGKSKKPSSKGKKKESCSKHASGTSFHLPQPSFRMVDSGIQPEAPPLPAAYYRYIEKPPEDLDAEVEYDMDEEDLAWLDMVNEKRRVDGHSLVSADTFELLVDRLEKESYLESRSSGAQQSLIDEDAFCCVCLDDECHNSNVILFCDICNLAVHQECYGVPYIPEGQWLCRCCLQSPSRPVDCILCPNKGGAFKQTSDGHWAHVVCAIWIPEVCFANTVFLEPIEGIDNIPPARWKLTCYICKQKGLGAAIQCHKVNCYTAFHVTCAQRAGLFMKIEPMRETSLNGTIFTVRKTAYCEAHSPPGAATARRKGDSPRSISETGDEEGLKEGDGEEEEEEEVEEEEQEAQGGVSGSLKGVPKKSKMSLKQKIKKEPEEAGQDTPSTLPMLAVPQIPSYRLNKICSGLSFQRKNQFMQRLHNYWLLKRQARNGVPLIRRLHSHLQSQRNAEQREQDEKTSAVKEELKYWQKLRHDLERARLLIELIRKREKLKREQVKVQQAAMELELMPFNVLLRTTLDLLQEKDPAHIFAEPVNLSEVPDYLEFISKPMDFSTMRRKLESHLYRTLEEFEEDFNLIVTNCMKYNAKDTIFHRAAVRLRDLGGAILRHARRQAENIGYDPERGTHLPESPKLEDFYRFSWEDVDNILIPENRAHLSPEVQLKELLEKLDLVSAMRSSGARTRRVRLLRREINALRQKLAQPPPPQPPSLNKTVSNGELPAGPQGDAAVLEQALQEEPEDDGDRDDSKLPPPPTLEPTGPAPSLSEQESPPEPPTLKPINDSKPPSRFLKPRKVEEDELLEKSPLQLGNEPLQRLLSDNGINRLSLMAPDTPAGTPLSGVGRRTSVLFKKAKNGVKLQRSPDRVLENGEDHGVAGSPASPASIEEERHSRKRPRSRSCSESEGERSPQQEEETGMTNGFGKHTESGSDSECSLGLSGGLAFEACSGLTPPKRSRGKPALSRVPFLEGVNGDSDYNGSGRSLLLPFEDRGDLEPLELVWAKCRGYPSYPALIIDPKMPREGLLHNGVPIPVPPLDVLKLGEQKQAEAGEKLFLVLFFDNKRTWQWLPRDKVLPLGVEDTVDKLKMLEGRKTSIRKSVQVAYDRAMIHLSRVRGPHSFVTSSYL
As to the kind of experiment: Selectivity interaction (Human bromodomain panel (DSF assay)) EUB0000233b BRPF3. On the technique in general: Differential scanning fluorimetry follows unfolding on heating by fluorescence.

The target of experiment [9] is T3, Dual specificity mitogen-activated protein kinase kinase 4 (Homo sapiens) (UniProt P45985).
T3 sequence (whole entry): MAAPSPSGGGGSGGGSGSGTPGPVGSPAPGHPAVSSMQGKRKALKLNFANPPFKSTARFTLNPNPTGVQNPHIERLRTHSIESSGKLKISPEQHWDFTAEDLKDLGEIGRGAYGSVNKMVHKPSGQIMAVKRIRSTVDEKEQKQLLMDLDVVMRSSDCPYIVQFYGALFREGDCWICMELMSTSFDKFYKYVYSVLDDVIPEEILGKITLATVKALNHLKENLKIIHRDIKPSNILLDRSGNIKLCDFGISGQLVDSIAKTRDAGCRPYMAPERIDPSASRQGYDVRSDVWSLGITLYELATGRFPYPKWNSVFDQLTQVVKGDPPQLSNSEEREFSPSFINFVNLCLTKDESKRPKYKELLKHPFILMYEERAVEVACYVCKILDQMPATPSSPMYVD
In words: Selectivity interaction (ActivX KiNativ screen (ex vivo kinase selectivity in human PBMCs)) EUB0001619a MAP2K4. Conditions: PBMC, at 1 µM. It is filed as cell-based.

Experiment [10] addresses Mitogen-activated protein kinase kinase kinase kinase 4 (Homo sapiens, UniProt O95819). In words: Selectivity interaction (Enzymatic assay) EUB0001199aCl MAP4K4.

Sequence of Serine/threonine-protein kinase 26 (Q9P289 2-416 limits assumed): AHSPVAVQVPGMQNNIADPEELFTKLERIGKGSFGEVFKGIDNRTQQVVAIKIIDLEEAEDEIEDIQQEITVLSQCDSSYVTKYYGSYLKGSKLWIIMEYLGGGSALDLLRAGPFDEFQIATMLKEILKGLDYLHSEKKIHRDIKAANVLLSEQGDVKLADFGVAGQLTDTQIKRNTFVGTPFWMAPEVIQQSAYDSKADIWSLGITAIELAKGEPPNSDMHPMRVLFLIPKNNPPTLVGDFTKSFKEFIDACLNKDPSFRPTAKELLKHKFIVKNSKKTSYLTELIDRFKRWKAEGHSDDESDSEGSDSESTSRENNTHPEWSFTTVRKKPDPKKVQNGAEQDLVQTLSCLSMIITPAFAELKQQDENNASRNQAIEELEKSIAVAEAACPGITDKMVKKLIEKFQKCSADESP
Sequence of Tyrosine-protein kinase BTK (Q06187 whole entry, the tested form may be a part): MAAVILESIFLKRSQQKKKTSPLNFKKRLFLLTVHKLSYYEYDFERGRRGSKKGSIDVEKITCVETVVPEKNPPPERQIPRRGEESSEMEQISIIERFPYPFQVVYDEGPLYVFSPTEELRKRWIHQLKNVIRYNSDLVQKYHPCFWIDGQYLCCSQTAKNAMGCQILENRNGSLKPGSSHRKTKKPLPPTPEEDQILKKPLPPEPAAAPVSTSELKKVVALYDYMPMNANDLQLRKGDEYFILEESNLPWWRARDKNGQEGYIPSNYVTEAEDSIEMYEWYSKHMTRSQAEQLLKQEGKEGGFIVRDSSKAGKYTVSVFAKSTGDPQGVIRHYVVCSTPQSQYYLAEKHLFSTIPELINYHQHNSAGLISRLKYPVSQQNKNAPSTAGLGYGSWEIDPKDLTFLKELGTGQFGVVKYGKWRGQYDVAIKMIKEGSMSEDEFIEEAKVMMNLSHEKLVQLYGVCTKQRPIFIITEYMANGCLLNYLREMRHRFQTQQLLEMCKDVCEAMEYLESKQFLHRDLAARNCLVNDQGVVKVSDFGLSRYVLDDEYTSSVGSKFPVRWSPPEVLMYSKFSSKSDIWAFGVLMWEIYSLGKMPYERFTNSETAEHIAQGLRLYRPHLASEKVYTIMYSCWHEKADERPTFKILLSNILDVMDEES
Sequence of Mitogen-activated protein kinase kinase kinase kinase 4 (O95819 whole entry): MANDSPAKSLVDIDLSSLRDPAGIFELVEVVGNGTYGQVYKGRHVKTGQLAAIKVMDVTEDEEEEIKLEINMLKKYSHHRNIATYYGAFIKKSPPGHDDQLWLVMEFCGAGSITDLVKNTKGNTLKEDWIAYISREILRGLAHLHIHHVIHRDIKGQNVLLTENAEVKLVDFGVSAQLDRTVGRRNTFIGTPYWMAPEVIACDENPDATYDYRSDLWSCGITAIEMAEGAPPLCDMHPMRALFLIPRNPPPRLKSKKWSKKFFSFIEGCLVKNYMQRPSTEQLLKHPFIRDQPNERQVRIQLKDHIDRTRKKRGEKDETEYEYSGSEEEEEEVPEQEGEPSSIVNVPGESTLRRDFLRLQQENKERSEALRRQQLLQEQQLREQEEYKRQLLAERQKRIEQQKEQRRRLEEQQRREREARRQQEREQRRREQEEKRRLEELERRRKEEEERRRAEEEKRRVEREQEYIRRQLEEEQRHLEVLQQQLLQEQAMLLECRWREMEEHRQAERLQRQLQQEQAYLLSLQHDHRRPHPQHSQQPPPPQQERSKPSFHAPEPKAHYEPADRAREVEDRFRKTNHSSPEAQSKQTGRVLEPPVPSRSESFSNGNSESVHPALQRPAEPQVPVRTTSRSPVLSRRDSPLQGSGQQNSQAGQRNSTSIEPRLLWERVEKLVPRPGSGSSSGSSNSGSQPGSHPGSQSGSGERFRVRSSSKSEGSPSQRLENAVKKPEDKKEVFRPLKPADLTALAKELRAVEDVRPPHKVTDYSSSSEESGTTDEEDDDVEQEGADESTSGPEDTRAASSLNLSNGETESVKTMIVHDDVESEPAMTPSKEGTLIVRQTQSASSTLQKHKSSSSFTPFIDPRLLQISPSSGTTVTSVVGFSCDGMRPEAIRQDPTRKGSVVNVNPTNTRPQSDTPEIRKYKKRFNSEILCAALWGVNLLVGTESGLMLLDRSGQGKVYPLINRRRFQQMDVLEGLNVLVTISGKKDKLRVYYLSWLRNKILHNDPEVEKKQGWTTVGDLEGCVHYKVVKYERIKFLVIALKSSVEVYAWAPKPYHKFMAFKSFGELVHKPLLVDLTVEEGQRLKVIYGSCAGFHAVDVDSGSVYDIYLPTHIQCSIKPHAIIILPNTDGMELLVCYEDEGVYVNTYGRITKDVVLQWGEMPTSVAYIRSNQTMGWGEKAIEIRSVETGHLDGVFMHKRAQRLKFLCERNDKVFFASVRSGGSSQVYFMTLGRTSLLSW

Regarding `CN(C)C/C=C/C(=O)Nc1ccc(C(=O)N2CCCC(Nc3ncc(Cl)c(-c4c[nH]c5ccccc45)n3)C2)cc1` (stereo unspecified), the % of control in experiment [1] turned out to be 90%.

With `CCN(CC)CCCCNc1ncc2cc(-c3cc(OC)cc(OC)c3)c(NC(=O)NC(C)(C)C)nc2n1`, the % of control in [2] and in [3] was 100% throughout.

As for `COc1cc(Nc2nc(C)cc(-c3cnn4nc(OC)ccc34)n2)cc(C(F)(F)F)c1`, the % of control in [4] is 52%.

`C=CC(=O)Nc1cc(-n2c(=O)ccc3cnc4ccc(-c5ccc(NS(C)(=O)=O)cc5)cc4c32)ccc1C`: the % of control in experiment [5] (at 1 µM) is 100%; in [5] (at 10 µM) it was 90%.

`CC[C@@H]1[C@H](F)C(=O)N[C@@H]1COc1nccc2cc(C(N)=O)c(OC)cc12` [ZIMLOVISERTIB]: the % of inhibition was 2.7% in experiment [6] and -0.209% in experiment [7].

As to `CN(C)CCCOc1ccc(-c2cc(NCCCn3cccn3)nc(S(C)(=O)=O)n2)cc1`, the dTM in [8] is less than 2 K.

Turning to `N#Cc1cccc(-c2c[nH]c3ncnc(N4CCOCC4)c23)c1`, the % of inhibition in [9] was found to be 2%.

`CN1Cc2nccc(-c3cn(C)nc3-c3ccc(F)cc3)c2C1=O`: the midpoint of inhibition in [10], the IC50, lay at 873 nM. In other words, the sub-micromolar range.
